For one molecule, caspase-6/9 activity and tumour growth results are on record in patent publication EP1283052A1, “Pharmaceutical composition containing caspase-8 and /or caspase-9 useful for overcoming glucocorticoid- and cancer therapy-induced apoptosis of tumours” (Deutsches Krebsforschungszentrum Stiftung des öffentlichen …, priority 2001, dated 2003).

For test [1], the system named is caspase-9 and -6. The test can be described thus: Fluorometric caspase-6/9 activity assay in P693 cells. In kind it is cell-based, human. The conditions noted are these: cisplatin 2 µg/ml alone, Fig. 5a. As to the method:
• (a) P693 and CEM cells were treated with cisplatin (2 µg/ml) in the absence or presence of DEX (1 µM) as indicated. 24 and 48 h following treatment cells were lysed and caspase-9 activity was determined using a fluorescent caspase-9 assay and spectroscopy. • (b) P5 and CEM cells were treated as described above. 24 h after stimulation Apaf-1 was immunoprecipitated from the cell extracts using a […]. Aliquotes of the precipitates were separated by three different gels and analysed by Western blotting using rabbit polyclonal Apaf-1, mAb cytochrome c or caspase-9 antibodies. The antibody heavy chain band (IgGH) ensures equal conditions. […]
• (A) Cell culture. […] The mice were given 0.28 mg/L DEX in drinking water, and the amount of water consumed was monitored. […] The tumour volumes were measured using callipers, and calculated using, as an approximation, the formula for volume of a hemi-ellipsoid: π(width^2 x length)/6. […] Early apoptotic changes were identified by staining of cells with fluoresceinthiocyanate (FITC)-conjugated annexin V and propidium iodide (Becton Dickinson, Heidelberg, Germany) and analysed by flow cytometry (FACScan, Becton Dickinson) as described (Herr et al., EMBO J. 16 (1997), 6200-6208) • (E) Immunohistochemistry. […] Bound antibodies were detected by FITC conjugated anti-mouse or anti-rabbit IgG (Molecular Probes Europe, Leiden, The Netherlands). […]

The subject of test [2] is P693 lung carcinoma xenografts. The test can be described thus: P693 lung carcinoma xenografts in nude mice, tumour volume. It counts as in vivo. The conditions noted are these: cisplatin 5mg/kg/week intraperitoneally for five weeks, absence of DEX; Fig. 1a. The procedure:
• (a) Human epidermoid lung cancer cells (P693) were injected into nude mice. At a tumour volume of 500 mm^3 weekly treatment with cisplatin (5mg/kg/week) was started. Cisplatin was injected intraperitoneally in the absence (CIS) or presence (DEX/CIS) of DEX which was added to the drinking water (0.28 mg/L) for the duration of the experiment. […] As controls, tumor growth of xenografts from mice which received neither cisplatin nor DEX (CO) or from mice which received DEX only (DEX) was determined. The tumour volume in each animal was measured at weekly intervals for a period of 5 weeks. Data are presented as the means +/- SD of 6 to 8 animals. • (b) The human cervical carcinoma cell lines HeLa and P5 were γ-irradiated (10 Gy) or treated with cisplatin (2 µg/ml) in the absence (white bars) or presence (black bars) of DEX (1 µM). The percentage of apoptosis was measured in untreated (CO) and stimulated cells by annexin-staining and FACS-analysis at the time points indicated. (c) P5, P693 and human leukemic T cells (CEM) cells were treated with cisplatin (2 µg/ml) in the absence or presence of DEX as indicated. 24 and 48 h following treatment cells were lysed and caspase-3 activity was determined by a fluorescent caspase-3 assay and spectroscopy.

For `N.N.[Cl][Pt][Cl]` [cisplatin], the caspase-6/9 activity entry in test [1] was “induced 24 h following cisplatin in P693 and CEM cells with increasing activity at 48 h”. The tumour growth result in test [2] was “profound reduction of tumour growth”.
